Laboratory results published in the NIST ThermoML archive (doi:10.1021/je5007532).

Tests used:
[1] = for viscosity: 100 kPa, Falling or rolling sphere viscometry; for viscosity / speed of sound / mass density: Liquid; for speed of sound / mass density: 101 kPa; for speed of sound: Sing-around technique in a fixed-path interferometer; for mass density: Vibrating tube method; for surface tension liquid-gas: 294.4 K, Pendant drop shape
[2] = xn = mol fraction of the nth substance listed; settings: x2 = 0; for viscosity: 100 kPa, Falling or rolling sphere viscometry; for viscosity / speed of sound / mass density: Liquid; for speed of sound / mass density: 101 kPa; for speed of sound: Sing-around technique in a fixed-path interferometer; for mass density: Vibrating tube method

CCCCCCC [heptane]
[1]
Settings	mass density [kg/m3]	speed of sound [m/s]	viscosity [mPa·s]
293.15 K	683.85	1151.7	0.41
298.15 K	679.61	1130.1	0.389
303.15 K	675.35	1109.1	0.368
308.15 K	671.05	1087.5	0.349
313.15 K	666.73	1066.6	–
318.15 K	662.38	1045.4	0.315
323.15 K	657.99	1024.7	0.3
328.15 K	653.57	1003.6	0.284
333.15 K	649.11	983	0.271
338.15 K	644.6	962.3	–

Settings	surface tension liquid-gas [mN/m]
[1]	20.3

CCCCCCC [heptane] + CC(C)CC(C)(C)C
[2]
Settings	mass density [kg/m3]	speed of sound [m/s]	viscosity [mPa·s]
293.15 K	683.85	1151.7	0.41
298.15 K	679.61	1130.1	0.389
303.15 K	675.35	1109.1	0.368
308.15 K	671.05	1087.5	0.349
313.15 K	666.73	1066.6	–
318.15 K	662.38	1045.4	0.315
323.15 K	657.99	1024.7	0.3
328.15 K	653.57	1003.6	0.284
333.15 K	649.11	983	0.271
338.15 K	644.6	962.3	–

Settings	surface tension liquid-gas [mN/m]
[2], 294.4 K, Pendant drop shape	20.3

CC(C)CC(C)(C)C [2,2,4-trimethylpentane]
[1]
Settings	mass density [kg/m3]	speed of sound [m/s]	viscosity [mPa·s]
293.15 K	691.84	1103.2	0.501
298.15 K	687.7	1082	0.473
303.15 K	683.59	1061.4	0.447
308.15 K	679.4	1040.4	0.423
313.15 K	675.23	1020	–
318.15 K	670.98	999.3	0.38
323.15 K	666.75	979.2	0.361
328.15 K	662.44	958.7	0.343
333.15 K	658.16	938.6	0.326
338.15 K	653.8	918.7	–
343.15 K	649.4	899	–

Settings	surface tension liquid-gas [mN/m]
[1]	18.7
